In PubChem BioAssay (NCI):
“And” between values parts separate entries of the source, which are not always exact repeats. Equal values may be shown once.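 Cultured in 96-well plates, cells were exposed to test compound for 48 hours across five concentrations. The concentration for 50% growth inhibition is given as GI50. At the TGI there is no net growth.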 Where a SMILES comes first, the peptide text is derived from it. [ ]: non-standard residue; d: D form. Ac5c = NC1(C(=O)O)CCCC1

Assays:
Test in all cases: NCI-60 cell line screen, 48 h
CCRF-CEM leukemia = test system: CCRF-CEM leukemia
OVCAR-8 ovarian = test system: OVCAR-8 ovarian
SK-MEL-2 melanoma = test system: SK-MEL-2 melanoma
M14 melanoma = test system: M14 melanoma
SNB-19 CNS = test system: SNB-19 CNS
HCT-116 colon = test system: HCT-116 colon
OVCAR-4 ovarian = test system: OVCAR-4 ovarian
OVCAR-5 ovarian = test system: OVCAR-5 ovarian
U251 CNS = test system: U251 CNS
SK-MEL-28 melanoma = test system: SK-MEL-28 melanoma

SMILES	TGI (CCRF-CEM leukemia) [µM]	GI50 (OVCAR-8 ovarian)	TGI (OVCAR-8 ovarian) [µM]	TGI (SK-MEL-2 melanoma) [µM]	GI50 (M14 melanoma)	TGI (M14 melanoma) [µM]	GI50 (SNB-19 CNS)	TGI (SNB-19 CNS) [µM]	TGI (HCT-116 colon) [µM]	TGI (OVCAR-4 ovarian) [µM]	TGI (OVCAR-5 ovarian) [µM]	GI50 (U251 CNS)	TGI (U251 CNS) [µM]	GI50 (SK-MEL-28 melanoma)	TGI (SK-MEL-28 melanoma) [µM]	GI50 (CCRF-CEM leukemia) [µM]	GI50 (SK-MEL-2 melanoma) [µM]	GI50 (HCT-116 colon) [µM]	GI50 (OVCAR-4 ovarian) [µM]	GI50 (OVCAR-5 ovarian) [µM]
COC(=O)CCc1cc(OC)c2c(c1)C(C(=O)OC)C(c1ccc(OC)c(OC)c1)O2 (centres undefined)	> 100	> 100 µM and 39.6 µM	> 100	> 100	> 100 µM and 11.6 µM	> 100	> 100 µM and 15.8 µM	> 100	> 100	> 100	> 100	> 100 µM and 13.3 µM	> 100	21.9 µM and > 100 µM	> 100					
CCCCCCCCC[C@@H]1CC(=O)OCC2OC(O[C@H](CCCCCCCCC)CC(=O)OCC3OC(O[C@H](CCCCCCCCC)CC(=O)OCC4OC(O1)C(O)C(O)C4O)C(O)C(O)C3O)C(O)C(O)C2O (some centres undefined)	19.4		28.7	22.3		10.2		23.6	21.9	32.3	22.5		21.4		18.6					
COc1cc(C(=O)/C(C)=C/c2c[nH]c3ccccc23)cc(OC)c1OC	> 100	0.00358 µM	82.4	15.2	0.00338 µM	1.89	0.00406 µM	> 100	> 100	> 100	> 100	0.00436 µM	10.6	0.0175 µM		0.00511	0.0123	0.00359	0.0249	0.0842
NNC(=O)/C(=C/c1ccc(Cl)c(Cl)c1)NC(=O)c1ccccc1	> 100		> 100	> 100		> 100		> 100	> 100	> 100	> 100		> 100		> 100					
COc1ccccc1N1C(=O)/C(=C/c2ccc(N(CCC#N)CCC#N)cc2C)N=C1c1cc([N+](=O)[O-])ccc1Cl	> 100		> 100	> 100		> 100		> 100	> 100	71.7	> 100		> 100		> 100					
NC1(C(=O)NC2(C(=O)O)CCCC2)CCCC1 (H-[Ac5c]-[Ac5c]-OH)	> 100		> 100	> 100		> 100		> 100	> 100	> 100	> 100		> 100		> 100					
